# Where “and” joins values, the source holds several entries; their conditions need not be identical. Identical values can stand only once.
# How the values were obtained:
# Assay type in all cases: biochemical
# [1] = test system: subtilisin; assay: Dilution assay: inhibition mixture diluted, final 1:1000, recovered subtilisin activity; details: final dilution 1:1000, 0.1M Tris pH 8.6
# Experimental: The above inhibition assay is diluted 1:10 into the standard subtilisin assay buffer (0.1M Tris, pH 8.6 with 0.005% Tween). 10 μl of this diluted material is then added to a cuvette containing 10 μl of 100 mg/ml SAAPFpna and 980 μl subtilisin Assay Buffer. The rate of reaction is followed at 410 nm. The final dilution is 1:1000.
# [2] = test system: subtilisin; assay: Inhibition assay: subtilisin incubated with inhibitor, rate of substrate hydrolysis monitored; details: about 2 mg/ml TOM; summary of Tables I and II
# Experimental: The inhibitor solution is made up in a 20 mM Mops, pH 7 buffer and added to an eppendorf. 0.8 mM subtilisin is added and the mixture is allowed to incubate at room temperature for 15 minutes. After 15 minutes, 99 μl of the mixture is added to a cuvette containing 10 μl of 100 mg/ml SAAApna. The rate of hydrolysis is monitored at […]. A subtilisin control containing no inhibitor is carried out.
# [3] = test system: subtilisin; assay: Inhibition of subtilisin by TOM in the presence of Tide Liquid, diluted 1/500; details: for % Activity Recovered Upon Dilution / Subtilisin activity, Tide 2 mg/ml TOM: 2 mg/ml TOM in Tide Liquid, diluted 1/500
# Experimental: 2 mg/ml of TOM was added to Tide™ Liquid (commercially available from The Procter & Gamble Co). The solution was diluted 1/500 into the standard subtilisin 8.6 Tris buffer. 10 μl aliquots were taken at various times to monitor subtilisin activity. Similar dilutions and assay procedures were carried out with Tide™ Liquid. 100 mg/ml SAAPFpna substrate was used.
substance,measurement,setting,value
turkey ovomucoid [TOM],Dilution Assay % Recovered Activity,[1]; 0.4 mg/ml TOM,32%
same,Dilution Assay % Recovered Activity,[1]; 2 mg/ml TOM,45%
same,active enzyme bound by inhibitor,[2],at least 90%
same,enzyme activity recovered immediately upon appropriate dilution,"[3]; about 2 mg/ml TOM, summary of Tables I and II",> 25% and 46%
same,% Activity Recovered Upon Dilution,[3]; time 0 min,46%
same,"Subtilisin activity, Tide 2 mg/ml TOM",[3]; time 0 min,1.04
same,% Activity Recovered Upon Dilution,[3]; time 15 min,38%
same,"Subtilisin activity, Tide 2 mg/ml TOM",[3]; time 15 min,0.97
same,% Activity Recovered Upon Dilution,[3]; time 30 min,33%
same,"Subtilisin activity, Tide 2 mg/ml TOM",[3]; time 30 min,0.965

# From patent publication US5178789A, “Liquid detergent with stabilized enzyme” (Genencor International, Inc., priority 1991, dated 1993)
